Source: ChEMBL document CHEMBL1156829 (Proc Natl Acad Sci U S A, 2008)

Key:
[1] = system: Plasmodium falciparum; assay: NOVARTIS: Inhibition of Plasmodium falciparum W2 (drug-resistant) proliferation in erythrocyte-based infection assay; type: functional, organism-based; conditions: Plasmodium falciparum, W2; read-out: EC50
[2] = NOVARTIS: Cytotoxicity against human hepatocellular carcinoma cell line (Huh7); type: toxicity, cell-based, Huh-7; conditions: Huh7 cells (hepatocellular carcinoma cell line)
[3] = system: Plasmodium falciparum; assay: NOVARTIS: Inhibition of Plasmodium falciparum 3D7 (drug-susceptible) proliferation in erythrocyte-based infection assay; type: functional, organism-based; conditions: Plasmodium falciparum, 3D7

Row | Compound | EC50 [1] | CC50 [2] | EC50 [3]
1 | Cn1c(SCC(=O)Nc2cccc(F)c2)nc2c(c1=O)SCC2 | 2150 nM | > 100000 nM | 2380 nM
2 | CN(CCCNc1ccnc2cc(Cl)ccc12)C(=O)c1ccc2c(c1)OCO2 | 214 nM | > 10000 nM | 249 nM
3 | CCOc1cc(/C=C(\C#N)c2nc3ccccc3[nH]2)ccc1OCc1ccccc1C#N | 214 nM | > 10000 nM | > 1120 nM
4 | CCOc1ccccc1NC(=O)Nc1ccc2nc(N3CCN(C)CC3)cc(C)c2c1 | 456 nM | 21400 nM | 1160 nM
5 | C[n+]1cccc(CNC2=C(Cl)C(=O)c3ccccc3C2=O)c1 | 213 nM | > 10000 nM | 127 nM
6 | C(#Cc1ccccc1)CN(Cc1ccccn1)Cc1ccccn1 | 300 nM | > 14100 nM | 1560 nM
7 | CN(CCCNc1ccnc2cc(Cl)ccc12)C(=O)c1ccc(F)cc1 | 212 nM | > 10000 nM | 127 nM
8 | Fc1ccc(C(CCNc2ncnc3c2[nH]c2ccccc23)c2ccco2)cc1 (configuration not stated) | 419 nM | 20200 nM | 216 nM
9 | Cc1cccc(C)c1NC(=O)CN1C(=O)C(C)(C)Oc2ccc(C(=O)NC(C)(C)C)cc21 | 2070 nM | > 100000 nM | > 9240 nM
10 | Cc1cc(N2CCN(C)CC2)nc2ccc(NC(=O)Nc3ccccc3Cl)cc12 | 2060 nM | > 100000 nM | 3100 nM
11 | CC1=C(CC(=O)c2ccccc2)C(=O)c2ccccc2C1=O | 300 nM | 13800 nM | 2660 nM
12 | Cc1ccc(/C=C/c2ccc3ccccc3[n+]2C)cc1 | 217 nM | > 10000 nM | 131 nM
13 | Cc1cc(C)c2cc(CN(CCN(C)C)C(=S)NCCCN(C)C)c(=O)[nH]c2c1 | 2150 nM | > 100000 nM | 2010 nM
14 | Cc1noc(-c2ccc(O)cc2O)c1-c1ccc2c(c1)OCCCO2 | 209 nM | > 10000 nM | 470 nM
15 | O=C(Nc1cccnc1)c1cc(-c2cccnc2)nc2ccc(Br)cc12 | 2140 nM | > 100000 nM | > 12500 nM
16 | CCOC(=O)c1cccc(OC(=O)c2ccccc2)c1 | 2120 nM | > 100000 nM | > 7670 nM
17 | COc1ccc(-c2cc(C(=O)Nc3cc(Oc4ccc(NC(C)=O)cc4)cc([N+](=O)[O-])c3)c3ccccc3n2)cc1 | 2110 nM | > 100000 nM | > 12500 nM

Row | Compound | EC50 [1] | CC50 [2] | EC50 [3]
18 | CC(C)=CCCC(C)=CCCC(C)NCCN1CCNCC1 (configuration not stated) | 140 nM | 6690 nM | 411 nM
19 | CCC(=O)Oc1ccccc1-c1nc2ccccn2c1NC(C)(C)CC(C)(C)C | 34.9 nM | 1650 nM | 743 nM
20 | CCCCc1c(C)nc2c(OC)cccc2c1O | 2110 nM | > 100000 nM | 1690 nM
21 | CC(C)(C)c1ccc(C(=O)NCCCCNc2ccnc3cc(Cl)ccc23)cc1 | 230 nM | > 10900 nM | 176 nM
22 | O=c1cc(C(F)(F)F)c2cc(Cl)c(O)cc2o1 | 2120 nM | > 100000 nM | > 12500 nM
23 | O=C(c1cccc(F)c1)N1CCN(Cc2ccncc2)CC1 | 2170 nM | > 100000 nM | > 9940 nM
24 | CC(=O)N(C)C1=C(N2CCCCCC2)C(=O)c2ccccc2C1=O | 38.6 nM | 1860 nM | 35.8 nM
25 | Cc1ccn2c(NC(C)(C)CC(C)(C)C)c(-c3ccccc3OC(=O)C34CC5CC(CC(C5)C3)C4)nc2c1 | 214 nM | > 10000 nM | 788 nM
26 | c1ccc2c(c1)ccc1cc3cccc[n+]3cc12 | 795 nM | 37000 nM | 1380 nM
27 | Cc1ccc(NC(=O)c2ccc(NCCCN3CCCCCC3)c([N+](=O)[O-])c2)cc1F | 371 nM | 16900 nM | 94.1 nM
28 | Cc1ccccc1N1C(=O)C2C3c4ccccc4C(C(=O)O)(c4ccccc43)C2C1=O (configuration not stated) | 2190 nM | > 100000 nM | > 12500 nM
29 | CCOc1ccc2ncc(S(=O)(=O)c3ccc(OC)cc3)c(N3CCN(C)CC3)c2c1 | 2080 nM | > 100000 nM | 100 nM
30 | COc1cccc(CN2CCc3nc(N4CCCCC4)sc3C2)c1 | 216 nM | > 10000 nM | 520 nM
31 | Cc1nc2c(C)c(-c3ccccc3)nn2c(O)c1C | 2080 nM | > 100000 nM | 1020 nM
32 | COc1ccc2ccccc2c1C1CC(=O)N2CN(Cc3ccco3)CSC2=C1C#N (configuration not stated) | 2180 nM | > 100000 nM | 3320 nM
33 | Cc1ccccc1Cn1c(N2CCC(C(=O)NCc3ccccn3)CC2)nc2ccccc21 | 2160 nM | > 100000 nM | 1940 nM
34 | CC(C)=CCCC1=CCC(CNCCCN(C)C)C(C)C1 (configuration not stated) | 415 nM | 18900 nM | 1750 nM
